Experiments:
Test in all cases: relative viability (nuclei count vs DMSO), 5 days (fraction); higher = more cells survive
[1] = compound: C1CCC(CC1)N(CCNCCC2=C3C(=C(C=C2)O)NC(=O)CO3)C(=O)CCNCCC4=CC(=C(C=C4)Cl)Cl [AZ505] + CC(=O)c1c(C)c2cnc(Nc3ccc(N4CCNCC4)cn3)nc2n(C2CCCC2)c1=O [Palbociclib] (partner 0.5 µM)
In short: (§1)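 Values are medians from duplicate plates. Each reflects relative viability, defined as the nuclei count of treated wells over that of vehicle wells. Lung cancer cell lines in 1536-well plates were pin-tool dosed one day after seeding with one drug alone or with a fixed anchor-drug dose plus five library-drug doses (not always all listed) in √10 steps, then fixed, stained and imaged at 4× after 5 days.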

[2] = compound: C1CCC(CC1)N(CCNCCC2=C3C(=C(C=C2)O)NC(=O)CO3)C(=O)CCNCCC4=CC(=C(C=C4)Cl)Cl [AZ505] + CC1(C)CCC(c2ccc(Cl)cc2)=C(CN2CCN(c3ccc(C(=O)NS(=O)(=O)c4ccc(N[C@H](CCN5CCOCC5)CSc5ccccc5)c(S(=O)(=O)C(F)(F)F)c4)cc3)CC2)C1 [Navitoclax] (partner 0.5 µM)
In short: as §1

[3] = compound: Cn1c(=O)n(-c2ccc(C(C)(C)C#N)cc2)c2c3cc(-c4cnc5ccccc5c4)ccc3ncc21 [Dactolisib] + C[C@]1(O)C[C@@H](c2nc(-c3ccc4ccc(-c5ccccc5)nc4c3)c3c(N)nccn32)C1 [Linsitinib] (partner 1 µM)
In short: as §1

[4] = compound: Cn1c(=O)n(-c2ccc(C(C)(C)C#N)cc2)c2c3cc(-c4cnc5ccccc5c4)ccc3ncc21 [Dactolisib] + C[C@@H](Oc1cc(-c2cnn(C3CCNCC3)c2)cnc1N)c1c(Cl)ccc(F)c1Cl [Crizotinib] (partner 1 µM)
In short: as §1

Cell Line | relative viability ([1]; first compound 0.08 µM) | relative viability ([1]; first compound 0.253 µM) | relative viability ([1]; first compound 0.8 µM) | relative viability ([1]; first compound 2.53 µM) | relative viability ([1]; first compound 8 µM) | relative viability ([2]; first compound 0.08 µM) | relative viability ([2]; first compound 0.253 µM) | relative viability ([2]; first compound 0.8 µM) | relative viability ([2]; first compound 2.53 µM) | relative viability ([2]; first compound 8 µM) | relative viability ([3]; first compound 0.002 µM) | relative viability ([3]; first compound 0.006325 µM) | relative viability ([3]; first compound 0.02 µM) | relative viability ([3]; first compound 0.06325 µM) | relative viability ([3]; first compound 0.2 µM) | relative viability ([4]; first compound 0.002 µM) | relative viability ([4]; first compound 0.006325 µM) | relative viability ([4]; first compound 0.02 µM) | relative viability ([4]; first compound 0.06325 µM) | relative viability ([4]; first compound 0.2 µM)
NCI-H1993 | 0.599 | 0.705 | 0.621 | 0.583 | 0.713 | 0.859 | 0.911 | 0.86 | 1.01 | 0.917 | 0.674 | 0.686 | 0.734 | 0.645 | 0.73 | 0.84 | 0.761 | 0.66 | 0.594 | 0.585
NCI-H2009 | 0.191 | 0.203 | 0.174 | 0.153 | 0.235 | 1.21 | 1.14 | 1.1 | 1.19 | 1.12 | 1.21 | 1.18 | 1.26 | 0.639 | 0.497 | 1.01 | 1.05 | 1.02 | 0.986 | 0.566
NCI-H2023 | 0.368 | 0.405 | 0.345 | 0.365 | 0.345 | 0.958 | 0.945 | 0.997 | 1.2 | 0.959 | 0.697 | 0.523 | 0.622 | 0.154 | 0.133 | 0.599 | 0.576 | 0.437 | 0.176 | 0.129
